Assay results as given in PMC6497555 (Molecular cancer therapeutics, 2019).

System: HeyA8 tumor model
Experiment: HeyA8 intraperitoneal ovarian cancer mouse model
Assay type: in vivo
Settings: all four groups compared; EP-100 0.2 mg/kg, olaparib 50 mg/kg

For O=C(c1cc(Cc2n[nH]c(=O)c3ccccc23)ccc1F)N1CCN(C(=O)C2CC2)CC1 [olaparib], which “Body weights of the host mice at the end of the experiment” value is on record?
The value was “did not differ significantly”.
